Experimental data as given in US20070142356A1, “Association of a sinus node If curent inhibitor and a calcium inhibitor, and pharmaceutical compositions containing it” (LES LABORATOIRES SERVIER, priority 2005, published 2007).

Tested on: patients being treated with dihydropyridine type calcium antagonists who still complained of painful angina pectoris attacks
Assay: Clinical studies 019 and 021: angina attacks in patients on dihydropyridines given concomitant ivabradine
Format: in vivo
Conditions: for Change in the number of angina pectoris attacks, %: after 1 year of ivabradine versus inclusion; for Number of angina pectoris attacks (per week), after treatment: patients on dihydropyridines on inclusion, ivabradine for 1 year
From the text: Two clinical studies carried out in patients being treated with dihydropyridine type calcium antagonists who still complained of painful angina pectoris attacks (despite the calcium antagonist) have shown that concomitant treatment with ivabradine makes it possible to reduce these attacks very substantially (by about 60%).

How did the “Change in the number of angina pectoris attacks, %” value (Study 019, n = 27) turn out when `COc1cc2c(cc1OC)CC(=O)N(CCCN(C)C[C@H]1Cc3cc(OC)c(OC)cc31)CC2` [ivabradine, 3-{3-[{[(7S)-3,4-dimethoxy-bicyclo[4.2.0]octa-1,3,5-trien-7-yl]methyl}(methyl)amino]propyl}-7,8-dimethoxy-1,3,4,5-tetrahydro-2H-3-benzazepin-2-one] was run?
The value was −61.4%.

And the “Number of angina pectoris attacks (per week), after treatment” value (Study 019, n = 27)?
Its value is 0.7 ± 1.3 per week.

And the “Change in the number of angina pectoris attacks, %” value (Study 021, n = 114)?
The value was −58.9%.

What about the “Number of angina pectoris attacks (per week), after treatment” value (Study 021, n = 114) of the same molecule?
Its value is 0.9 ± 2.9 per week.

What about the “Reduction of painful angina pectoris attacks” value (two clinical studies, ivabradine concomitant with dihydropyridine calcium antagonist) of the same molecule?
The value was “about 60%”.
